The text below walks through data of article PMC11523249, “Expanding the antiprotozoal activity and the mechanism of action of n-butyl and iso-butyl ester of quinoxaline-1,4-di-N-oxide derivatives against Giardia lamblia, Trichomonas vaginalis, and Entamoeba histolytica. An in vitro and in silico approach” (Journal of Enzyme Inhibition and Medicinal Chemistry, 2024).

Each structure is given as a SMILES string.

Series [1] can be described thus: Cytotoxic evaluation, MTT colorimetric assay. Type of series: cell-based. The following applies: mouse, J774.2 macrophage cell line, murine macrophages J774.2, read-out: Cytotoxicity (Macrophages J774.2) (CC50). Here is the method:
The murine macrophage cell line J774.2 was maintained in culture flasks with RPMI 1640 medium supplemented with 10% FBS, and 100 U/mL antibiotic-antifungal mixture (Gibco). Cells were incubated at 37 °C with 5% CO2 and humidity. Murine macrophage cell line J774.2 is maintained at Laboratorio de Estudios Epidemiológicos, Clínicos, Diseños Experimentales e Investigación, Facultad de Ciencias Químicas, Universidad Autónoma “Benito Juárez” de Oaxaca. Macrophages were washed and viability was assessed by the MTT colorimetric assay. In a 96-well microplate, 1 × 10^5 macrophages were added per well and a dose-response assay was performed. Compounds were evaluated using serial dilutions to determine half-maximal cytotoxic concentration (CC50) values in triplicate considering 0.2% DMSO as negative control.
Background: Tetrazolium assays rely on reduction of a dye to a coloured formazan, in cell work by metabolically active cells.

Another series deals with T. vaginalis GT3 strain. In words: In vitro susceptibility assay, T. vaginalis trophozoites. As to conditions: Trichomonas vaginalis, GT3, 48 h, read-out: T. vaginalis (IC50 nM), trophozoites, 48 h at 37 °C, subcultured 48 h, Probit analysis. It is filed as cell-based, Trichomonas vaginalis. The procedure:
(§1) G. lamblia WB strain, T. vaginalis GT3 strain, and E. histolytica strain HM1-IMSS were used in all experiments, all parasitic strains were obtained from the Unidad de Investigación Médica en Enfermedades Infecciosas y Parasitarias, Hospital de Pediatría, Instituto Mexicano del Seguro Social. In vitro susceptibility assays to determine IC50 values were performed using a method previously described. For this, 4 × 10^4 G. lamblia; 6 × 10^3 E. histolytica, or 4 × 10^4 T. vaginalis trophozoites were incubated for 48 h at 37 °C with different concentrations of quinoxaline derivatives T-137 to T-170 (0.5 ng/mL to 10 μg/mL) using dimethyl sulfoxide (DMSO) (0.05%) as solvent. Metronidazole and albendazole were used as positive controls, and parasites in the medium without drugs containing DMSO (0.05%) were included as negative controls. At the end of the incubation period, trophozoites were washed and subcultured for another 48 h in a fresh medium without drugs. Then, trophozoites were counted with a haemocytometer and the IC50 was calculated by Probit analysis. Experiments were carried out in triplicate and repeated at least twice.

The next series deals with G. lamblia WB strain. In words: In vitro susceptibility assay, G. lamblia trophozoites. Type of series: cell-based, Giardia lamblia. The following applies: Giardia duodenalis, 48 h, read-out: G. lamblia (IC50 nM), trophozoites, 48 h at 37 °C, subcultured 48 h, Probit analysis. The procedure:
as §1

For series [2], the system named is E. histolytica strain HM1-IMSS. In words: In vitro susceptibility assay, E. histolytica trophozoites. It is filed as cell-based, Entamoeba histolytica. The following applies: Entamoeba histolytica, 48 h, read-out: E. histolytica (IC50 nM), trophozoites, 48 h at 37 °C, subcultured 48 h, Probit analysis. The procedure:
as §1

Series [3] addresses T1, recombinant E. histolytica thioredoxin reductase (EhTRXR) (Entamoeba histolytica, UniProt C4LW95).
T1 construct: His-tag (pET28a) (N); made in house; host or cells: E. coli BL21 (DE3)
T1 sequence (C4LW95 1-314): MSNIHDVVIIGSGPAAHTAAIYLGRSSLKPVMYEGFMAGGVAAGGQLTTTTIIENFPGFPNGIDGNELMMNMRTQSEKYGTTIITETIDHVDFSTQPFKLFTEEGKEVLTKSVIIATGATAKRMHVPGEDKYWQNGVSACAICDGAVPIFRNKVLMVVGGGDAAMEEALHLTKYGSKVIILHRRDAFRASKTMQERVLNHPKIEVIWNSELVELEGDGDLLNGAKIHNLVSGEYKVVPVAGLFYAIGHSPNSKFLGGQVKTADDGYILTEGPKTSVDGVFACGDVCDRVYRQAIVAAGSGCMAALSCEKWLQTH
The arrangement: method as in earlier work. As to conditions: ref 34 (Sóto-Sánchez et al. 2020); cited from earlier work.

Usually CC50 stands for the concentration giving 50% cytotoxicity. A word on the IC50: it is the point on the concentration scale where inhibition reaches its midpoint. For the compound `CC(=O)c1c(-c2ccccc2)[n+]([O-])c2ccc(C(=O)OCC(C)C)cc2[n+]1[O-]` [Compound T-168], the half-maximal cytotoxic concentration (CC50) in series [1] is 28500 ± 1690 nM. Moreover, the IC50 in the series with T. vaginalis GT3 strain came to 150 ± 14.5 nM; in the series with G. lamblia WB strain, 39.5 ± 2.63 nM; in series [2] it was 50 ± 2.63 nM.

As to `CCOC(=O)c1c(C(F)(F)F)[n+]([O-])c2ccc(C(=O)OC(C)C)cc2[n+]1[O-]` [Compound T-116], the half-maximal inhibitory concentration (IC50) in series [3] was 28000 nM.

On to `CC(=O)c1c(Nc2ccc(C)cc2C)[n+]([O-])c2ccc(C(=O)OCC(C)C)cc2[n+]1[O-]` [Compound T-170], for which the cytotoxic concentration (CC50) in series [1] is over 200000 nM. In addition, the concentration for half-maximal inhibition (IC50) worked out at 130 ± 8.27 nM with T. vaginalis GT3 strain, 109 ± 3.55 nM with G. lamblia WB strain and 33.1 ± 2.36 nM in series [2].
